Results on ten compounds are retold here after ChEMBL document CHEMBL1201862, “PubChem BioAssay data set” (2004).

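Each compound was tested at five concentrations against cells in 96-well plates for 48 hours. GI50 = concentration required for 50% inhibition of growth.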 Activity calls are given as the source filed them. No stated cut-off is given here; in the data, active = GI50 up to about 1.1 µM and inactive = higher.

Test systems include SNB-19; BT-549; SNB-75; M14; NCI-H460; SK-MEL-2; 786-0; COLO 205; RXF 393; Malme-3M; IGROV-1; MDA-MB-231; HT-29; HCC 2998; HL-60; KM12; MCF7; K562; TK-10; SF-295.
What all share (test): growth of human tumour cells (NCI), 48 h

With `CCCCCCc1cc2cc(C(=O)NCc3ccccc3)c(=N)oc2cc1O`, the GI50 in the experiment on SNB-19, in the experiment on BT-549, with SNB-75, in the experiment with M14, with NCI-H460 and in the experiment with SK-MEL-2 was > 100 µM (inactive) in each case. Also, the GI50 in the experiment with 786-0, in the experiment on COLO 205, in the experiment on RXF 393, in the experiment with Malme-3M, in the experiment on IGROV-1 and in the experiment on MDA-MB-231 was > 100 µM (inactive) each time. For the same compound, the GI50 in the experiment on HT-29, with HCC 2998, in the experiment on HL-60, with KM12, in the experiment on MCF7 and in the experiment with K562 was > 100 µM (inactive) each time.
Turning to `Cc1c2cc[n+](CCN3CCCCC3)cc2c(C)c2c1[nH]c1ccc(O)cc12`, the GI50 with TK-10 was 15.1 µM (inactive); with SNB-19, 1.16 µM (inactive); in the experiment with BT-549, 11.8 µM (inactive); in the experiment on SNB-75, 0.647 µM (active); with M14, 9.27 µM (inactive); in the experiment on NCI-H460, 0.418 µM (active). The GI50 in the experiment with SK-MEL-2 was 11.9 µM (inactive); in the experiment with 786-0, 2.41 µM (inactive); in the experiment on COLO 205 it was 1.66 µM (inactive); in the experiment with RXF 393, 5.2 µM (inactive); in the experiment on SF-295 it was 1.47 µM (inactive); with Malme-3M, 2.39 µM (inactive). In addition, the GI50 in the experiment with IGROV-1 is 2.89 µM (inactive); with MDA-MB-231, 9.93 µM (inactive); in the experiment on HT-29, 8 µM (inactive); in the experiment on HCC 2998, 3.12 µM (inactive); in the experiment with HL-60 it was 1.69 µM (inactive); with KM12 it was 1.64 µM (inactive). Further, the GI50 in the experiment with MCF7 is 1.76 µM (inactive); with K562, 2.69 µM (inactive).
For `Nc1nc(Cl)cc(NCC2(CO)CCC2)n1`, the GI50 in the experiment on TK-10, in the experiment with SNB-19, in the experiment on BT-549, in the experiment with SNB-75, in the experiment on NCI-H460 and in the experiment with SK-MEL-2 was > 100 µM (inactive) in each case. In addition, the GI50 in the experiment on 786-0, with COLO 205, in the experiment with RXF 393, in the experiment with SF-295, with Malme-3M and in the experiment on IGROV-1 was > 100 µM (inactive) each time. In addition, the GI50 with MDA-MB-231, in the experiment with HT-29, in the experiment on HCC 2998, with HL-60, in the experiment with KM12 and with MCF7 was > 100 µM (inactive) throughout. Further, in the experiment with K562, the GI50 is > 100 µM (inactive).
`COC1(OC)N=C(N)C2(C#N)C3(C(=O)N(C(C)C)N=C3C)C12C#N` (centres undefined): the GI50 with SNB-19, with BT-549, in the experiment on SNB-75, in the experiment on M14, in the experiment with NCI-H460 and with SK-MEL-2 was > 100 µM (inactive) in each case. Moreover, the GI50 in the experiment with 786-0, with COLO 205, in the experiment with RXF 393, with SF-295, in the experiment with Malme-3M and in the experiment with IGROV-1 was > 100 µM (inactive) in each case. The GI50 with MDA-MB-231, in the experiment with HT-29, in the experiment with HCC 2998, in the experiment on HL-60, in the experiment on KM12 and with MCF7 was > 100 µM (inactive) each time. Further, the GI50 in the experiment on K562 is > 100 µM (inactive).
For `CC(C)=NOC(=O)CNC(=O)C(Cc1ccccc1)NC(=O)C(C)NC(=O)OC(C)(C)C` (centres undefined), the GI50 in the experiment on TK-10, in the experiment on SNB-19, with BT-549, with SNB-75, in the experiment with M14 and in the experiment on NCI-H460 was > 100 µM (inactive) in each case. Moreover, the GI50 with SK-MEL-2, in the experiment with 786-0, in the experiment with COLO 205, in the experiment with RXF 393, in the experiment with SF-295 and in the experiment with Malme-3M was > 100 µM (inactive) throughout. Further, the GI50 in the experiment with IGROV-1, in the experiment with MDA-MB-231, in the experiment with HT-29, in the experiment with HCC 2998, in the experiment with HL-60 and in the experiment on KM12 was > 100 µM (inactive) throughout. Moreover, the GI50 with MCF7 and with K562 was > 100 µM (inactive) each time.
For `CCOC(=O)C(=O)C(CCC(=O)c1ccc2ccccc2c1O)C(=O)OCC` (centres undefined), the GI50 in the experiment with SNB-19, in the experiment with BT-549, with SNB-75, in the experiment on M14, in the experiment on NCI-H460 and in the experiment with SK-MEL-2 was > 100 µM (inactive) each time. In addition, the GI50 in the experiment on 786-0, with COLO 205, in the experiment with RXF 393, in the experiment with SF-295, in the experiment with Malme-3M and in the experiment on IGROV-1 was > 100 µM (inactive) throughout. Further, the GI50 with MDA-MB-231, in the experiment on HT-29, in the experiment with HCC 2998, in the experiment with HL-60, in the experiment on KM12 and in the experiment with MCF7 was > 100 µM (inactive) each time. Also, the GI50 in the experiment on K562 is > 100 µM (inactive).
As for `CS(=O)(=O)C(=Cc1ccccc1Cl)S(C)(=O)=O`, the GI50 in the experiment with TK-10 is > 100 µM (inactive); in the experiment on SNB-19, > 100 µM (inactive); in the experiment with BT-549, > 100 µM (inactive); in the experiment with SNB-75 it was > 100 µM (inactive); in the experiment with M14, > 80.2 µM (inactive); in the experiment with NCI-H460, > 100 µM (inactive). The GI50 in the experiment on SK-MEL-2 is > 100 µM (inactive); in the experiment on 786-0 it was > 100 µM (inactive); with COLO 205 it was > 100 µM (inactive); in the experiment on RXF 393, > 100 µM (inactive); with SF-295 it was > 46.5 µM (inactive); with Malme-3M, > 100 µM (inactive). Further, the GI50 in the experiment with IGROV-1 was > 100 µM (inactive); in the experiment on MDA-MB-231 it was > 100 µM (inactive); in the experiment on HT-29, > 100 µM (inactive); in the experiment with HCC 2998, > 100 µM (inactive); in the experiment on HL-60, 1.14 µM (inactive); with KM12 it was > 46.5 µM (inactive). Moreover, the GI50 with MCF7 is > 40.3 µM (inactive); in the experiment on K562, 3.7 µM (inactive).
On to `C=CCc1c(Cl)nc(Cl)nc1Cl`, for which the GI50 in the experiment with TK-10 is 1.08 µM (active); in the experiment with SNB-19 it was 0.859 µM (active); in the experiment on BT-549, 0.0474 µM (active); in the experiment on SNB-75, 1.08 µM (active); in the experiment on M14, < 0.0156 µM (active); in the experiment on NCI-H460, 0.565 µM (active). For the same compound, the GI50 was 0.478 µM (active) in the experiment on SK-MEL-2; 0.0918 µM (active) in the experiment on 786-0; 0.195 µM (active) with COLO 205; 0.217 µM (active) in the experiment on RXF 393; 1.93 µM (inactive) with SF-295; 0.159 µM (active) in the experiment on Malme-3M. Further, the GI50 is 0.323 µM (active) in the experiment on IGROV-1; 0.561 µM (active) in the experiment on MDA-MB-231; 0.266 µM (active) in the experiment with HT-29; 0.832 µM (active) in the experiment with HCC 2998; > 100 µM (inactive) in the experiment with HL-60; 0.439 µM (active) in the experiment on KM12. The GI50 is 0.185 µM (active) in the experiment with MCF7 and < 0.0151 µM (active) in the experiment with K562.
On to `CC(=O)NCC1OC2COC(c3ccccc3)OC2C2N=C(c3ccccc3)OC12` (centres undefined), for which the GI50 with TK-10 was 58.2 µM (inactive); with SNB-19, > 100 µM (inactive); with BT-549 it was 68.1 µM (inactive); with SNB-75, 38.2 µM (inactive); with M14, 60.8 µM (inactive); in the experiment on NCI-H460, 60.7 µM (inactive). Also, the GI50 was 53.6 µM (inactive) in the experiment with SK-MEL-2; > 100 µM (inactive) in the experiment with 786-0; 30.7 µM (inactive) in the experiment with COLO 205; 41.7 µM (inactive) in the experiment with RXF 393; 35.3 µM (inactive) in the experiment with SF-295; 58.7 µM (inactive) in the experiment on Malme-3M. Further, the GI50 was > 100 µM (inactive) in the experiment on MDA-MB-231; 34.8 µM (inactive) in the experiment with HT-29; 66.5 µM (inactive) in the experiment on HCC 2998; 26.7 µM (inactive) in the experiment on HL-60; 40.4 µM (inactive) with KM12; 41.9 µM (inactive) in the experiment on MCF7. Besides, in the experiment on K562, the GI50 was 32.6 µM (inactive).
For the compound `O=C1CC[N+]2=Cc3ccccc3O[B-]2(c2ccccc2)O1` (centres undefined), the GI50 was > 100 µM (inactive) in the experiment on TK-10; > 100 µM (inactive) with SNB-19; > 100 µM (inactive) with BT-549; 67.1 µM (inactive) with SNB-75; > 100 µM (inactive) in the experiment on M14; > 100 µM (inactive) in the experiment with NCI-H460. For the same compound, the GI50 with SK-MEL-2, in the experiment with 786-0, with COLO 205, in the experiment on RXF 393, with SF-295 and in the experiment with Malme-3M was > 100 µM (inactive) each time. Moreover, the GI50 with IGROV-1 is > 100 µM (inactive); with MDA-MB-231, > 100 µM (inactive); with HT-29, > 100 µM (inactive); in the experiment with HCC 2998, > 100 µM (inactive); with HL-60, 89.9 µM (inactive); in the experiment with KM12 it was > 100 µM (inactive). Further, the GI50 with MCF7 and with K562 was > 100 µM (inactive) throughout.
